Compound: NC(=O)c1ccc(N(C(N)=O)c2c(F)cccc2F)nc1-c1ccc(F)cc1F [VX-702] + CC1(C)CCC(c2ccc(Cl)cc2)=C(CN2CCN(c3ccc(C(=O)NS(=O)(=O)c4ccc(N[C@H](CCN5CCOCC5)CSc5ccccc5)c(S(=O)(=O)C(F)(F)F)c4)cc3)CC2)C1 [Navitoclax] (partner 0.5 µM)
Test: relative viability (nuclei count vs DMSO), 5 days (fraction); higher = more cells survive
Conditions: first compound 2 µM
Method in brief: (§1)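 Lung cancer cell lines in 1536-well plates were dosed by pin tool the day after seeding, either with one drug alone or with a fixed anchor-drug dose plus five library-drug doses (not always all listed) in √10 steps. After 5 days, cells were fixed and their nuclei stained in one step (final 0.05% Triton X-100, 1% formaldehyde, 1 ug/ml Hoechst), then counted on 4× images. Relative viability is the nuclei count in treated wells divided by that in vehicle wells. Values are medians of duplicate plates.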

In order of falling relative viability:
1. SK-MES-1  1.44
2. NCI-H1395  1.37
3. NCI-H322M  1.28
4. 201T  1.24
5. HARA  1.09
6. NCI-H2023  1.03
7. NCI-H1666  1.02
8. LC-2-ad  0.561

Compound: NC(=O)c1ccc(N(C(N)=O)c2c(F)cccc2F)nc1-c1ccc(F)cc1F [VX-702] + COc1cc2c(Oc3ccc(NC(=O)C4(C(=O)Nc5ccc(F)cc5)CC4)cc3F)ccnc2cc1OCCCN1CCOCC1 [Foretinib] (partner 0.25 µM)
Test: as above
Conditions: first compound 0.02 µM
Method in brief: as §1

In order of falling relative viability:
1. NCI-H2347  1.49
2. NCI-H2009  1.28
3. NCI-H2087  1.18
4. PC-3 [JPC-3]  1.11
5. NCI-H1915  1.1
6. NCI-H2405  1.08
7. LXF-289  1.04
8. NCI-H1666  0.992
9. NCI-H1395  0.986
10. LK-2  0.985
11. NCI-H1975  0.969
12. NCI-H3122  0.964
13. NCI-H322M  0.964
14. 201T  0.943
15. SK-MES-1  0.935
16. HCC-366  0.896
17. NCI-H520  0.876
18. HARA  0.852
19. LCLC-97TM1  0.836
20. LC-2-ad  0.765
21. NCI-H2023  0.761
22. NCI-H1993  0.717
23. EPLC-272H  0.6

Same assay, conditions: first compound 0.2 µM

In order of falling relative viability:
1. NCI-H2009  1.28
2. LK-2  1.21
3. NCI-H1915  1.06
4. NCI-H1395  1.03
5. PC-3 [JPC-3]  1.02
6. 201T  0.987
7. NCI-H2405  0.98
8. SK-MES-1  0.97
9. LXF-289  0.962
10. LC-2-ad  0.958
11. NCI-H3122  0.946
12. LCLC-97TM1  0.923
13. NCI-H1975  0.915
14. NCI-H2087  0.915
15. NCI-H322M  0.875
16. HCC-366  0.873
17. NCI-H2347  0.828
18. NCI-H1993  0.773
19. HARA  0.763
20. NCI-H520  0.73
21. NCI-H2023  0.722
22. EPLC-272H  0.659

Same assay, conditions: first compound 0.6325 µM

In order of falling relative viability:
1. NCI-H2009  1.28
2. NCI-H2347  1.16
3. NCI-H2087  1.12
4. PC-3 [JPC-3]  1.1
5. LK-2  1.08
6. NCI-H1915  1.06
7. 201T  1.05
8. NCI-H1666  1.02
9. NCI-H3122  1.01
10. NCI-H1395  0.968
11. NCI-H2405  0.965
12. LXF-289  0.958
13. HCC-366  0.955
14. NCI-H1975  0.943
15. LCLC-97TM1  0.938
16. SK-MES-1  0.934
17. NCI-H322M  0.932
18. HARA  0.908
19. LC-2-ad  0.838
20. NCI-H1993  0.754
21. NCI-H2023  0.724
22. EPLC-272H  0.667
23. NCI-H520  0.607

Same assay, conditions: first compound 2 µM

In order of rising relative viability:
1. NCI-H1993  0.693
2. NCI-H520  0.744
3. HARA  0.814
4. EPLC-272H  0.817
5. SK-MES-1  0.911
6. HCC-366  0.922
7. NCI-H3122  0.923
8. LXF-289  0.98
9. LC-2-ad  0.99
10. LCLC-97TM1  0.991
11. NCI-H2023  1
12. NCI-H322M  1
13. NCI-H2405  1.02
14. NCI-H2347  1.03
15. PC-3 [JPC-3]  1.05
16. NCI-H1666  1.06
17. 201T  1.07
18. NCI-H1975  1.09
19. LK-2  1.11
20. NCI-H1395  1.12
21. NCI-H1915  1.17
22. NCI-H2087  1.23
23. NCI-H2009  1.38

Compound: NC(=O)c1ccc(N(C(N)=O)c2c(F)cccc2F)nc1-c1ccc(F)cc1F [VX-702] + Nc1nc2[nH]cc(CCc3ccc(C(=O)N[C@@H](CCC(=O)O)C(=O)O)cc3)c2c(=O)[nH]1 [Pemetrexed] (partner 0.2 µM)
Test: as above
Conditions: first compound 0.02 µM
Method in brief: as §1

In order of falling relative viability:
1. PC-3 [JPC-3]  1.23
2. NCI-H2009  1.12
3. NCI-H2405  1.11
4. SK-MES-1  0.936
5. LXF-289  0.935
6. NCI-H1666  0.869
7. NCI-H1395  0.864
8. NCI-H520  0.713
9. NCI-H2087  0.703
10. NCI-H1993  0.646
11. NCI-H322M  0.61
12. NCI-H1915  0.519
13. NCI-H2347  0.425
14. 201T  0.36
15. EPLC-272H  0.354
16. NCI-H1975  0.312
17. LK-2  0.277
18. LC-2-ad  0.275
19. HARA  0.235
20. NCI-H2023  0.231
21. NCI-H3122  0.21
22. HCC-366  0.171
23. LCLC-97TM1  0.167

Same assay, conditions: first compound 0.2 µM

In order of rising relative viability:
1. HCC-366  0.149
2. LCLC-97TM1  0.171
3. NCI-H3122  0.194
4. NCI-H2023  0.264
5. LC-2-ad  0.271
6. LK-2  0.272
7. NCI-H1975  0.296
8. 201T  0.331
9. EPLC-272H  0.402
10. NCI-H2347  0.43
11. NCI-H1915  0.476
12. NCI-H520  0.486
13. NCI-H1993  0.529
14. NCI-H322M  0.611
15. NCI-H2087  0.657
16. NCI-H1395  0.851
17. NCI-H1666  0.869
18. SK-MES-1  0.89
19. LXF-289  0.894
20. NCI-H2405  1.04
21. PC-3 [JPC-3]  1.08
22. NCI-H2009  1.08

Same assay, conditions: first compound 0.6325 µM

In order of rising relative viability:
1. LCLC-97TM1  0.141
2. NCI-H3122  0.199
3. NCI-H2023  0.199
4. HCC-366  0.203
5. LK-2  0.236
6. LC-2-ad  0.269
7. HARA  0.277
8. NCI-H1975  0.301
9. EPLC-272H  0.318
10. 201T  0.339
11. NCI-H2347  0.438
12. NCI-H1915  0.446
13. NCI-H1993  0.523
14. NCI-H322M  0.633
15. NCI-H520  0.636
16. NCI-H2087  0.681
17. NCI-H1395  0.831
18. NCI-H1666  0.89
19. SK-MES-1  0.891
20. LXF-289  0.9
21. NCI-H2009  1.03
22. NCI-H2405  1.04
23. PC-3 [JPC-3]  1.23

Same assay, conditions: first compound 2 µM

In order of falling relative viability:
1. NCI-H2405  1.2
2. NCI-H2009  1.15
3. PC-3 [JPC-3]  1.07
4. NCI-H1395  1.01
5. SK-MES-1  0.979
6. LXF-289  0.947
7. NCI-H1666  0.808
8. NCI-H520  0.765
9. NCI-H2087  0.656
10. NCI-H322M  0.578
11. NCI-H1993  0.563
12. NCI-H1915  0.455
13. NCI-H2347  0.415
14. EPLC-272H  0.403
15. 201T  0.34
16. NCI-H1975  0.287
17. LC-2-ad  0.274
18. HARA  0.256
19. LK-2  0.247
20. NCI-H2023  0.198
21. LCLC-97TM1  0.193
22. NCI-H3122  0.187
23. HCC-366  0.165

— the supplement of paper PMC10307832
